50 compounds from US20220030868A1, “FUNGICIDAL HALOMETHYL KETONES AND HYDRATES” (FMC CORPORATION, priority 2018, published 2022) can be followed below.

Molecules are shown by their SMILES.

Test [1] relates to Phakopsora pachyrhizi. Kind of test: Test A: test suspension sprayed on soybean seedlings one day before inoculation with Phakopsora pachyrhizi spores (Asian soybean rust), visual disease rating. The test is classed as in vivo. The following applies: 10 ppm test suspension, 100 = 100% disease control, 0 = no control. A digest of the protocol: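 Compound dissolved in acetone (3% of final volume), then suspended at the stated ppm in 50/50 acetone/water with 250 ppm PEG400 surfactant; sprayed to run-off on soybean seedlings, inoculated with P. pachyrhizi spores next day. Held saturated at 22° C for 24 h, then 8 days at 22° C; visual rating as % disease control versus controls.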

Test [2] relates to Puccinia recondita f. sp. tritici. Kind of test: Test B: test suspension sprayed on wheat seedlings one day before inoculation with Puccinia recondita f. sp. tritici spores (wheat leaf rust), disease rating. As to conditions: 10 ppm test suspension, 100 = 100% disease control, 0 = no control. The test is classed as in vivo. A digest of the protocol:
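Wheat seedlings were sprayed to run-off with compound suspended in 50/50 acetone/water containing 250 ppm PEG400, then inoculated with P. recondita f. sp. tritici spores the next day. Plants were held 24 h in saturated air at 20 °C, then 6 days in a growth chamber at 20 °C. Disease control was rated 0–100% relative to controls, with some entries run at 50 or 10 ppm.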

For the compound `N#CCOC(=O)c1cnn(Cc2ccc(OCC3(C(F)(F)F)OCCO3)cc2)c1` [compound 172], in test [1], the “Test A rating (disease control)” value came out at 100%. Also, the “Test B rating (disease control)” value in test [2] turned out to be 0%.

In the case of `FC(F)(F)c1nc(-c2ccc(OCC3(C(F)(F)F)OCCO3)cc2)no1` [compound 173], the “Test A rating (disease control)” value in test [1] is listed as 0%. Moreover, in test [2], the “Test B rating (disease control)” value is recorded as 0%.

On to `NCc1ccc(OCC2(C(F)(F)F)OCCO2)cc1` [compound 174], for which the “Test A rating (disease control)” value in test [1] is listed as 0%. Also, in test [2], the “Test B rating (disease control)” value is recorded as 0%.

For the compound `CC(C)C(=O)NCc1ccc(OCC2(C(F)(F)F)OCCO2)cc1` [compound 175], in test [1], the “Test A rating (disease control)” value stood at 0%. Further, the “Test B rating (disease control)” value in test [2] is given as 0%.

For `O=C(NCc1ccc(OCC2(C(F)(F)F)OCCO2)cc1)C1CC1` [compound 176], in test [1], the “Test A rating (disease control)” value stood at 0%. For the same compound, the “Test B rating (disease control)” value in test [2] was 0%.

Take `OCc1ccc(OCC2(C(F)(F)F)OCCO2)cc1` [compound 178]: the “Test A rating (disease control)” value in test [1] is listed as 0%. The “Test B rating (disease control)” value in test [2] came to 0%.

Turning to `O=C(NCc1ccc(OCC2(C(F)(F)F)OCCO2)cc1)c1cccc(C(F)(F)F)c1` [compound 179], in test [1], the “Test A rating (disease control)” value amounted to 0%. Further, the “Test B rating (disease control)” value in test [2] is reported as 0%.

Turning to `CCO/C(=C\Oc1ccc(Cn2cc(Cl)cn2)cc1)C(F)(F)F` [compound 180], the “Test A rating (disease control)” value in test [1] came out at 0%. In addition, the “Test B rating (disease control)” value in test [2] was 0%.

In the case of `CCO/C(=C\Oc1ccc(Cn2ccc(C(F)(F)F)n2)cc1)C(F)(F)F` [compound 181], the “Test A rating (disease control)” value in test [1] is recorded as 0%. Besides, the “Test B rating (disease control)” value in test [2] was 0%.

For the compound `CCO/C(=C\Oc1ccc(Cn2cc(C(F)(F)F)cn2)cc1)C(F)(F)F` [compound 182], in test [1], the “Test A rating (disease control)” value is 0%. Besides, in test [2], the “Test B rating (disease control)” value came to 0%.

For `CCO/C(=C\Oc1ccc(Cn2cc(Br)cn2)cc1)C(F)(F)F` [compound 183], in test [1], the “Test A rating (disease control)” value worked out at 0%. For the same compound, in test [2], the “Test B rating (disease control)” value was determined as 0%.

On to `CCO/C(=C\Oc1ccc(CN2C(=O)c3ccccc3C2=O)cc1)C(F)(F)F` [compound 184], for which, in test [1], the “Test A rating (disease control)” value was determined as 0%. Moreover, the “Test B rating (disease control)” value in test [2] is reported as 0%.

`C=CCOC(=O)c1cnn(Cc2ccc(OCC3(C(F)(F)F)OCCO3)cc2)c1` [compound 188]: in test [1], the “Test A rating (disease control)” value is listed as 100%. Further, in test [2], the “Test B rating (disease control)” value amounted to 0%.

For the compound `COC(=O)c1ccc(OCC2(C(F)(F)F)OCCO2)cc1` [compound 189], in test [1], the “Test A rating (disease control)” value is 0%. Moreover, the “Test B rating (disease control)” value in test [2] was 0%.

On to `FC(F)(F)C1(COc2ccc(-c3ccccc3)cc2)OCCO1` [compound 190], for which, in test [1], the “Test A rating (disease control)” value was 0%. Besides, the “Test B rating (disease control)” value in test [2] is given as 0%.

As for `FC(F)(F)C1(COc2ccc(Oc3ccccc3)cc2)OCCO1` [compound 191], the “Test A rating (disease control)” value in test [1] amounted to 0%. The “Test B rating (disease control)” value in test [2] amounted to 0%.

As to `FC(F)(F)C1(COc2ccc(Cc3ccccc3)cc2)OCCO1` [compound 192], in test [1], the “Test A rating (disease control)” value worked out at 0%. Further, the “Test B rating (disease control)” value in test [2] amounted to 0%.

Take `CCO/C(=C\Oc1ccc(COC(N)=O)cc1)C(F)(F)F` [compound 193]: in test [1], the “Test A rating (disease control)” value was found to be 0%. In addition, the “Test B rating (disease control)” value in test [2] is recorded as 86%.

As to `CCO/C(=C\Oc1ccc(CO)cc1)C(F)(F)F` [compound 195], in test [1], the “Test A rating (disease control)” value amounted to 0%. Also, in test [2], the “Test B rating (disease control)” value was 0%.

In the case of `CCNC(=O)OCc1ccc(O/C=C(\OCC)C(F)(F)F)cc1` [compound 196], the “Test A rating (disease control)” value in test [1] came to 0%. In addition, the “Test B rating (disease control)” value in test [2] is listed as 74%.

With `O=C(NCC(F)(F)F)c1cnn(Cc2ccc(OCC3(C(F)(F)F)OCCO3)cc2)c1` [compound 197], in test [1], the “Test A rating (disease control)” value turned out to be 0%. The “Test B rating (disease control)” value in test [2] worked out at 0%.

As for `CN(C)C(=O)c1cnn(Cc2ccc(OCC3(C(F)(F)F)OCCO3)cc2)c1` [compound 198], the “Test A rating (disease control)” value in test [1] is 0%. Besides, the “Test B rating (disease control)” value in test [2] is given as 0%.

Turning to `O=C(OCc1ccccn1)c1cnn(Cc2ccc(OCC3(C(F)(F)F)OCCO3)cc2)c1` [compound 199], the “Test A rating (disease control)” value in test [1] is 100%. Moreover, in test [2], the “Test B rating (disease control)” value was 0%.

For the compound `O=C(OCc1cccnc1)c1cnn(Cc2ccc(OCC3(C(F)(F)F)OCCO3)cc2)c1` [compound 200], the “Test A rating (disease control)” value in test [1] was 100%. In addition, the “Test B rating (disease control)” value in test [2] was 0%.

On to `O=C(OCc1ccncc1)c1cnn(Cc2ccc(OCC3(C(F)(F)F)OCCO3)cc2)c1` [compound 201], for which the “Test A rating (disease control)” value in test [1] is 100%. In test [2], the “Test B rating (disease control)” value is recorded as 0%.

As to `O=C(OCC(=O)C1CCCCC1)c1cnn(Cc2ccc(OCC3(C(F)(F)F)OCCO3)cc2)c1` [compound 202], the “Test A rating (disease control)” value in test [1] is 100%. Also, the “Test B rating (disease control)” value in test [2] was 0%.

In the case of `COC(=O)COC(=O)c1cnn(Cc2ccc(OCC3(C(F)(F)F)OCCO3)cc2)c1` [compound 203], the “Test A rating (disease control)” value in test [1] amounted to 50%. The “Test B rating (disease control)” value in test [2] came out at 0%.

For `O=C(OCC1OCCO1)c1cnn(Cc2ccc(OCC3(C(F)(F)F)OCCO3)cc2)c1` [compound 204], the “Test A rating (disease control)” value in test [1] is given as 100%. In addition, the “Test B rating (disease control)” value in test [2] worked out at 0%.

For the compound `CCO/C(=C\Oc1ccc(Cn2cc(C#N)cn2)cc1)C(F)(F)F` [compound 205], the “Test A rating (disease control)” value in test [1] turned out to be 0%. In addition, the “Test B rating (disease control)” value in test [2] came to 0%.

As to `O=S(=O)(NCc1ccc(OCC2(C(F)(F)F)OCCO2)cc1)C(F)(F)F` [compound 207], the “Test A rating (disease control)” value in test [1] is reported as 0%. The “Test B rating (disease control)” value in test [2] is given as 0%.

As to `N#Cc1cnn(Cc2ccc(OCC3(C(F)(F)F)OCCO3)cc2)c1` [compound 209], in test [1], the “Test A rating (disease control)” value turned out to be 89%. Further, the “Test B rating (disease control)” value in test [2] was determined as 0%.

With `CCO/C(=C\Oc1ccc(CNC(=O)C(C)C)cc1)C(F)(F)F` [compound 210], the “Test A rating (disease control)” value in test [1] is reported as 0%. Besides, the “Test B rating (disease control)” value in test [2] is 0%.

On to `O=C(CC(F)(F)F)NCc1ccc(OCC2(C(F)(F)F)OCCO2)cc1` [compound 212], for which, in test [1], the “Test A rating (disease control)” value is listed as 44%. Moreover, the “Test B rating (disease control)” value in test [2] amounted to 0%.

For `COC(C)C(=O)NCc1ccc(OCC2(C(F)(F)F)OCCO2)cc1` (stereo not shown) [compound 214], in test [1], the “Test A rating (disease control)” value is reported as 0%. In addition, the “Test B rating (disease control)” value in test [2] is on record as 0%.

As for `CCO/C(=C\Oc1ccc(Cn2cc(C(=O)OCCOC)cn2)cc1)C(F)(F)F` [compound 222], the “Test A rating (disease control)” value in test [1] came to 100%. Moreover, the “Test B rating (disease control)” value in test [2] turned out to be 0%.

Regarding `CCO/C(=C\Oc1ccc(CN2CCCC2=O)cc1)C(F)(F)F` [compound 224], the “Test A rating (disease control)” value in test [1] was 0%. Moreover, the “Test B rating (disease control)” value in test [2] is given as 0%.

With `CCO/C(=C\Oc1ccc(CN2CCC(C)(C)C2=O)cc1)C(F)(F)F` [compound 225], in test [1], the “Test A rating (disease control)” value was 0%. In test [2], the “Test B rating (disease control)” value is on record as 0%.

In the case of `CCO/C(=C\Oc1ccc(Cn2c(=O)oc3ccccc32)cc1)C(F)(F)F` [compound 226], in test [1], the “Test A rating (disease control)” value is 0%. The “Test B rating (disease control)” value in test [2] is 0%.

In the case of `C=C(C)COC(=O)c1cnn(Cc2ccc(OCC3(C(F)(F)F)OCCO3)cc2)c1` [compound 228], in test [1], the “Test A rating (disease control)” value is 100%. Besides, the “Test B rating (disease control)” value in test [2] is listed as 0%.

Consider `CCO/C(=C\Oc1ccc(C(=O)OC)cc1)C(F)(F)F` [compound 230], for which the “Test A rating (disease control)” value in test [1] worked out at 0%. In test [2], the “Test B rating (disease control)” value was found to be 0%.

For the compound `CCOC(=O)c1ccn(Cc2ccc(OCC3(C(F)(F)F)OCCO3)cc2)n1` [compound 232], the “Test A rating (disease control)” value in test [1] came to 98%. The “Test B rating (disease control)” value in test [2] was 0%.

`CON(Cc1ccc(OCC2(C(F)(F)F)OCCO2)cc1)C(=O)C(C)C` [compound 235]: the “Test A rating (disease control)” value in test [1] is reported as 97%. The “Test B rating (disease control)” value in test [2] amounted to 0%.

`CON(Cc1ccc(OCC2(C(F)(F)F)OCCO2)cc1)C(=O)C1CC1` [compound 236]: the “Test A rating (disease control)” value in test [1] is 75%. Besides, in test [2], the “Test B rating (disease control)” value worked out at 0%.

Consider `CCCC(=O)N(Cc1ccc(OCC2(C(F)(F)F)OCCO2)cc1)OC` [compound 237], for which the “Test A rating (disease control)” value in test [1] was found to be 97%. Also, the “Test B rating (disease control)” value in test [2] is recorded as 0%.

For `CON(Cc1ccc(OCC2(C(F)(F)F)OCCO2)cc1)C(=O)OC(C)(C)C` [compound 238], the “Test A rating (disease control)” value in test [1] was found to be 73%. Further, the “Test B rating (disease control)” value in test [2] amounted to 0%.

As for `N#CCc1ccc(OCC2(C(F)(F)F)OCCO2)cc1` [compound 239], in test [1], the “Test A rating (disease control)” value was determined as 0%. For the same compound, in test [2], the “Test B rating (disease control)” value was 0%.

As to `CCOCc1cnn(Cc2ccc(OCC3(C(F)(F)F)OCCO3)cc2)c1` [compound 240], the “Test A rating (disease control)” value in test [1] is listed as 99%. The “Test B rating (disease control)” value in test [2] came out at 0%.

Regarding `CCOC(=O)c1ccnn1Cc1ccc(O/C=C(\OCC)C(F)(F)F)cc1` [compound 241], in test [1], the “Test A rating (disease control)” value is listed as 0%. Also, the “Test B rating (disease control)” value in test [2] is recorded as 0%.

`C=C(C)COC(=O)c1cnn(Cc2ccc(O/C=C(\OCC)C(F)(F)F)cc2)c1` [compound 242]: the “Test A rating (disease control)” value in test [1] worked out at 100%. In addition, the “Test B rating (disease control)” value in test [2] worked out at 0%.

As for `CCO/C(=C\Oc1ccc(Cn2cc(C(=O)OCC(=O)c3ccccc3)cn2)cc1)C(F)(F)F` [compound 244], the “Test A rating (disease control)” value in test [1] was determined as 100%. Moreover, the “Test B rating (disease control)” value in test [2] came to 0%.
